From patent publication US20230062100A1, “SUBSTITUTED AMINOQUINOLONES AS DGKALPHA INHIBITORS FOR IMMUNE ACTIVATION” (Bayer Aktiengesellschaft, priority 2019, published 2023)

Target: T1, DGKα (Homo sapiens, UniProt P23743)
Experiment: Human DGKα kinase activity inhibition assay (ADP-Glo)
Assay type: biochemical
Conditions: in vitro human DGKα kinase activity inhibition assay
In short: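 C-terminally FLAG-tagged full-length human DGKα from baculovirus/insect cells (typically ~0.1 nM) phosphorylated 1,2-dioleoyl-sn-glycerol in octyl-β-D-glucopyranoside micelles in MOPS pH 7.4. ADP formed was quantified by ADP-Glo luminescence after 1 h ATP depletion at 22 °C.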
Target sequence in this assay (P23743 with tags, fused parts or gaps): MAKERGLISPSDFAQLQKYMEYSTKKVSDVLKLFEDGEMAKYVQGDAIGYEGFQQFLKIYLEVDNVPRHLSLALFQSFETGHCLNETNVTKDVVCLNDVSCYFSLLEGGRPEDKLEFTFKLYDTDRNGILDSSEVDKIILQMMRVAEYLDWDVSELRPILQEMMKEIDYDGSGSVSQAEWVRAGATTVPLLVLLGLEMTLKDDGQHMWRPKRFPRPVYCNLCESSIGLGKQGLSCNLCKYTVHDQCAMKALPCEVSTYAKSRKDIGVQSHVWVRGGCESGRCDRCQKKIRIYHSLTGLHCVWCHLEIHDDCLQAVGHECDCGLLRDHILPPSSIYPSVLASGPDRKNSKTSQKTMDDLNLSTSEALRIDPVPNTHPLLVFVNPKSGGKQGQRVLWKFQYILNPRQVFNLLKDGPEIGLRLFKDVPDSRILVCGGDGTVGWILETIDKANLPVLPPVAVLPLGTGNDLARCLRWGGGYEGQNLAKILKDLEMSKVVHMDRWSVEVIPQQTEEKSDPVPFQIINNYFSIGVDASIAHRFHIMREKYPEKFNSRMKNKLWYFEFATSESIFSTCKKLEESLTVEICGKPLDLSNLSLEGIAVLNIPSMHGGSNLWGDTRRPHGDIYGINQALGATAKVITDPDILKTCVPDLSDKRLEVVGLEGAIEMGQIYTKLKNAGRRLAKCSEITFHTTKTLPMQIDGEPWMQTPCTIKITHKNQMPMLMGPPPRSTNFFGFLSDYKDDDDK

| IC50 [nM] | Structure (SMILES) |
| --- | --- |
| 12 | Cc1cccc(OC2CCN(c3c(C(N)=O)c(=O)n(C)c4ccc(C)cc34)CC2)c1 [Example 158, 1,6-dimethyl-4-[4-(3-methylphenoxy)piperidin-1-yl]-2-oxo-1,2-dihydroquinoline-3-carboxamide] |
| 12 | COc1cccc(OC2CCN(c3c(C(N)=O)c(=O)n(C)c4ccc(C)cc34)CC2)c1 [Example 159, 4-[4-(3-methoxyphenoxy)piperidin-1-yl]-1,6-dimethyl-2-oxo-1,2-dihydroquinoline-3-carboxamide] |
| 3.1 | Cc1ccc2c(c1)c(N1CCC(Oc3ccc(OC(F)(F)F)cc3)CC1)c(C(N)=O)c(=O)n2C [Example 160, 1,6-dimethyl-2-oxo-4-{4-[4-(trifluoromethoxy)phenoxy]piperidin-1-yl}-1,2-dihydroquinoline-3-carboxamide] |
| 21 | COc1cc(C)ccc1OC1CCN(c2c(C(N)=O)c(=O)n(C)c3ccc(C)cc23)CC1 [Example 161, 4-[4-(2-methoxy-4-methylphenoxy)piperidin-1-yl]-1,6-dimethyl-2-oxo-1,2-dihydroquinoline-3-carboxamide] |
| 57 | COc1ccccc1OC1CCN(c2c(C(N)=O)c(=O)n(C)c3ccc(C)cc23)CC1 [Example 162] |
| 59 | Cc1ccc2c(c1)c(N1CCC(Oc3ccccc3Cl)CC1)c(C(N)=O)c(=O)n2C [Example 163, 4-[4-(2-chlorophenoxy)piperidin-1-yl]-1,6-dimethyl-2-oxo-1,2-dihydroquinoline-3-carboxamide] |
| 37 | Cn1c(=O)c(C(N)=O)c(N2CCC(Oc3ccc(OC(F)(F)F)cc3)CC2)c2cccc(Cl)c21 [Example 164, 8-chloro-1-methyl-2-oxo-4-{4-[4-(trifluoromethoxy)phenoxy]piperidin-1-yl}-1,2-dihydroquinoline-3-carboxamide] |
| 0.17 | Cn1c(=O)c(C(N)=O)c(N2CCC(Oc3ccc(OC(F)(F)F)cc3)CC2)c2cc(F)ccc21 [Example 165, 6-fluoro-1-methyl-2-oxo-4-{4-[4-(trifluoromethoxy)phenoxy]piperidin-1-yl}-1,2-dihydroquinoline-3-carboxamide] |
| 0.97 | Cn1c(=O)c(C#N)c(N2CCC(Oc3ccc(OC(F)(F)F)cc3)CC2)c2cc(F)ccc21 [Example 166, 6-fluoro-1-methyl-2-oxo-4-{4-[4-(trifluoromethoxy)phenoxy]piperidin-1-yl}-1,2-dihydroquinoline-3-carbonitrile] |
| 0.94 | Cn1c(=O)c(C#N)c(N2CCC(Oc3ccc(OC(F)(F)F)cc3)CC2)c2cc(O)ccc21 [Example 167, 6-hydroxy-1-methyl-2-oxo-4-{4-[4-(trifluoromethoxy)phenoxy]piperidin-1-yl}-1,2-dihydroquinoline-3-carbonitrile] |
| 556 | Cc1cc(Br)c2c(c1)c(N1CCC(Oc3ccc(OC(F)(F)F)cc3)CC1)c(C#N)c(=O)n2C [Example 168, 8-bromo-1,6-dimethyl-2-oxo-4-{4-[4-(trifluoromethoxy)phenoxy]piperidin-1-yl}-1,2-dihydroquinoline-3-carbonitrile] |
| 2530 | Cc1cc(Br)c2c(c1)c(N1CCC(Oc3cccc(Cl)c3)CC1)c(C#N)c(=O)n2C [Example 169, 8-bromo-4-[4-(3-chlorophenoxy)piperidin-1-yl]-1,6-dimethyl-2-oxo-1,2-dihydroquinoline-3-carbonitrile] |

Continued, compound first:

| Structure (SMILES) | IC50 [nM] |
| --- | --- |
| Cc1ccc2c(c1)c(N1CCC(Oc3ccccc3C)CC1)c(C#N)c(=O)n2C [Example 150, 1,6-dimethyl-4-[4-(2-methylphenoxy)piperidin-1-yl]-2-oxo-1,2-dihydroquinoline-3-carbonitrile] | 50 |
| Cc1ccc2c(c1)c(N1CCC(Oc3ccccc3Cl)CC1)c(C#N)c(=O)n2C [Example 151, 4-[4-(2-chlorophenoxy)piperidin-1-yl]-1,6-dimethyl-2-oxo-1,2-dihydroquinoline-3-carbonitrile] | 60 |
| COc1cccc(OC2CCN(c3c(C#N)c(=O)n(C)c4ccc(C)cc34)CC2)c1 [Example 152, 4-[4-(3-methoxyphenoxy)piperidin-1-yl]-1,6-dimethyl-2-oxo-1 2-dihydroquinoline-3-carbonitrile] | 3.8 |
| COc1cc(C)ccc1OC1CCN(c2c(C#N)c(=O)n(C)c3ccc(C)cc23)CC1 [Example 153, 4-[4-(2-methoxy-4-methylphenoxy)piperidin-1-yl]-1,6-dimethyl-2-oxo-1,2-dihydroquinoline-3-carbonitrile] | 10 |
| COc1ccccc1OC1CCN(c2c(C#N)c(=O)n(C)c3ccc(C)cc23)CC1 [Example 154, 4-[4-(2-methoxyphenoxy)piperidin-1-yl]-1,6-dimethyl-2-oxo-1,2-dihydroquinoline-3-carbonitrile] | 13 |
| Cc1ccc2c(c1)c(N1CCC(Oc3ccccc3C#N)CC1)c(C#N)c(=O)n2C [Example 155, 4-[4-(2-cyanophenoxy)piperidin-1-yl]-1,6-dimethyl-2-oxo-1,2-dihydroquinoline-3-carbonitrile] | 9.3 |
| COc1ccc2c(c1)c(N1CCC(Oc3ccc(OC(F)(F)F)cc3)CC1)c(C#N)c(=O)n2C [Example 156, 6-methoxy-1-methyl-2-oxo-4-{4-[4-(trifluoromethoxy)phenoxy]piperidin-1-yl}-1,2-dihydroquinoline-3-carbonitrile] | 7 |
| Cn1c(=O)c(C#N)c(N2CCC(Oc3ccc(OC(F)(F)F)cc3)CC2)c2cc(Cl)ccc21 [Example 157, 6-chloro-1-methyl-2-oxo-4-{4-[4-(trifluoromethoxy)phenoxy]piperidin-1-yl}-1,2-dihydroquinoline-3-carbonitrile] | 1240 |

Target: T1, DGKα
Experiment: not given
Conditions: literature report; cited from earlier work
Target sequence in this assay (P23743 whole entry, species assumed): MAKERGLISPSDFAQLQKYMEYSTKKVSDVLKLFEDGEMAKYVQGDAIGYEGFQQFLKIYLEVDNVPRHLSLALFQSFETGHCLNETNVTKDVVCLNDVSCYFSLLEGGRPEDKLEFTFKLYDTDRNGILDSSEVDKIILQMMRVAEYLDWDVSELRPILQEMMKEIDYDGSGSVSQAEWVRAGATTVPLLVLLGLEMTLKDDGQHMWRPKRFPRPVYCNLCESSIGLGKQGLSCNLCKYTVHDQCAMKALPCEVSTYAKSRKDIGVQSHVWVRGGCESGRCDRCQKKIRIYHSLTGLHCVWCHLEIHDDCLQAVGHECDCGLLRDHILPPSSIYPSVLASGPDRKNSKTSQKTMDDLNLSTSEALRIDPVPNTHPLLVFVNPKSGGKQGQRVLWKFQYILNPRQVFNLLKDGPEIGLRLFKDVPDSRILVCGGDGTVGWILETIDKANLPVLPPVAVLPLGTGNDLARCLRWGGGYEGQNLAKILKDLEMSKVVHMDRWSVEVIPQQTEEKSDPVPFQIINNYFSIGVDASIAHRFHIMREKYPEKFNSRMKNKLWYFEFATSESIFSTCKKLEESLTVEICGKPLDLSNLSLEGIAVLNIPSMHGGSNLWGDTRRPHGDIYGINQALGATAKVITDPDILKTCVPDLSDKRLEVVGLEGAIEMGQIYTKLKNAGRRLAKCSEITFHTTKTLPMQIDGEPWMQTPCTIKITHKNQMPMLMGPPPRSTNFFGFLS

| Structure (SMILES) | inhibitory activity on DGKα |
| --- | --- |
| Cc1ccc2c(C(=O)CN3CCN(C(=O)c4ccco4)CC3)c(C)[nH]c2c1 [AMB639752] | micromolar |
| O=C1/C(=C\C=C\c2ccco2)SC(=S)N1NS(=O)(=O)c1ccccc1 [CU-3] | sub-micromolar |
| Cc1nc2sccn2c(=O)c1CCN1CCC(=C(c2ccc(F)cc2)c2ccc(F)cc2)CC1 [Ritanserin] | comparable activity |

System: GBM tumors
Experiment: not given
Conditions: concurrent administration; literature report; cited from earlier work

| Structure (SMILES) | growth of intracranially injected GBM tumors |
| --- | --- |
| Cc1nc2sccn2c(=O)c1CCN1CCC(=C(c2ccccc2)c2ccc(F)cc2)CC1 [Example R59022] | decreased growth |
